From patent US5006533A, “Certain 3-bromo-2,6-dimethoxybenzamides and pharmaceutical use thereof” (Boehringer Ingelheim GmbH, priority 1986, dated 1991)
Structures can show the parent of a compound that is named as a salt.

Key:
LD50 (mouse) p.o. = conditions: in vivo, po
[1] = test system: rhesus monkeys sensitised with haloperidol; assay: dyskinesia in rhesus monkeys sensitised with haloperidol; assay type: in vivo, rhesus monkey; conditions: for Dyskinesia threshold dose p.o.: rhesus monkeys sensitised with haloperidol; for Dyskinesia index I:II: ratio of climbing test ED50 (I) to dyskinesia threshold dose (II)
Text: The dyskinetic effects are among the most disturbing side effects of neuroleptic drugs. These include Parkinsonian manifestations such as tremor, rigidity and akinesia but also dyskinesia in the mouth-tongue-pharynx region.
The investigation of such symptoms in an animal model is possible using rhesus monkeys sensitised with haloperidol. After being given neuroleptic drugs, which have extrapyramidal motor effects in humans, these animals show typical dyskinesia in the mouth and tongue region (according to J. Liebmann and R. Neale, Psychopharmacology 68, 25-29 (1980) modified).

[2] = test system: apomorphine climbing, mouse; assay: apomorphine climbing test on the mouse; assay type: in vivo; conditions: after 1 h

SMILES | LD50 (LD50 (mouse) p.o.) | Dyskinesia threshold dose p.o. [1] | Dyskinesia index I:II [1] | ED50 [2]
COc1ccc(Br)c(OC)c1C(=O)NC1CC2CCC(C1)N2Cc1ccccc1 (stereo not drawn) [A, N-(8-benzyl-3-nortropanyl)-2,6-dimethoxy-3-bromobenzamide, reference compound] | ~300 mg/kg | 10 mg/kg | 0.18 | 1.8 mg/kg
COc1ccc(Br)c(OC)c1C(=O)NC1CC2CC(O)C(C1)N2Cc1ccccc1 (stereo not drawn) [X = H, N-(8-Benzyl-6-hydroxy-3-nortropanyl)-2,6-dimethoxy-3-bromobenzamide fumarate] | ~300 mg/kg | > 15 mg/kg | < 0.08 | 1.2 mg/kg
COc1ccc(Br)c(OC)c1C(=O)NC1CC2CC(O)C(C1)N2Cc1ccc(Cl)cc1 (racemic) [X = Cl, N-[8-(4-Chlorobenzyl)-6-hydroxy-3-nortropanyl]-2,6-dimethoxy-3-bromobenzamide-hydrochloride] | > 1000 mg/kg | 30 mg/kg | 0.028 | 0.85 mg/kg
COc1ccc(Br)c(OC)c1C(=O)NC1CC2CC(O)C(C1)N2Cc1ccc(F)cc1 (stereo not drawn) [X = F, N-[8-(4-Fluorobenzyl)-6-hydroxy-3-nortropanyl]-2,6-dimethoxy-3-bromobenzamide-hydrochloride] | – | 8 mg/kg | 0.078 | 0.63 mg/kg
